Laboratory results from ChEMBL document CHEMBL1201862, “PubChem BioAssay data set” (2004).
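All cell lines were grown in 96-well plates and treated with compound for 48 hours. Here, GI50 denotes the concentration required for 50% inhibition of growth.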 The source made the active and inactive calls. No stated cut-off is given here; in the data, active = GI50 up to about 1.1 µM and inactive = higher.

What was measured:
Test in all cases: inhibition of tumour cell growth, NCI panel, 48 h
[1] = system: KM12
[2] = system: MCF7
[3] = system: SF-295
[4] = system: HT-29
[5] = system: SK-OV-3
[6] = system: PC-3
[7] = system: NCI-H460
[8] = system: UACC-62
[9] = system: MOLT-4
[10] = system: SN12C
[11] = system: T47D
[12] = system: HCC 2998
[13] = system: K562
[14] = system: HOP-92
[15] = system: MDA-MB-231
[16] = system: SNB-19
[17] = system: HCT-15
[18] = system: OVCAR-4
[19] = system: HL-60
[20] = system: HOP-62
[21] = system: UACC-257
[22] = system: TK-10
[23] = system: EKVX
[24] = system: SW-620
[25] = system: IGROV-1
[26] = system: NCI-H226
[27] = system: MDA-N
[28] = system: A549
[29] = system: Malme-3M
[30] = system: OVCAR-3
[31] = system: NCI/ADR-RES
[32] = system: ACHN
[33] = system: NCI-H23
[34] = system: LOX IMVI
[35] = system: OVCAR-8
[36] = system: 786-0
[37] = system: COLO 205
[38] = system: OVCAR-5
[39] = system: M14
[40] = system: RXF 393
[41] = system: SNB-75
[42] = system: SK-MEL-28
[43] = system: SF-539
[44] = system: SR
[45] = system: U-251
[46] = system: UO-31
[47] = system: HCT-116
[48] = system: BT-549
[49] = system: MDA-MB-435
[50] = system: CCRF-CEM
[51] = system: A498
[52] = system: DU-145
[53] = system: CAKI-1
[54] = system: SF-268
[55] = system: NCI-H522
[56] = system: RPMI-8226
[57] = system: Hs-578T
[58] = system: SK-MEL-5

CC(C)(Cc1ccccc1)Cc1cc(O)ccc1O was tested, and the GI50 [1] was 15 µM (inactive), the GI50 [2] was 23.4 µM (inactive) and the GI50 [3] was 18 µM (inactive). For the same compound, the GI50 [4] was 20.6 µM (inactive), the GI50 [5] was 24.7 µM (inactive) and the GI50 [6] was 22.2 µM (inactive). For the same compound, the GI50 [7] was 16.6 µM (inactive), the GI50 [8] was 23.7 µM (inactive) and the GI50 [9] was 14.8 µM (inactive). For the same compound, the GI50 [10] was 16.7 µM (inactive), the GI50 [11] was 5.9 µM (inactive) and the GI50 [12] was 20 µM (inactive). For the same compound, the GI50 [13] was 12.4 µM (inactive), the GI50 [14] was 14.4 µM (inactive) and the GI50 [15] was 20 µM (inactive). The GI50 [16] was 17.7 µM (inactive), the GI50 [17] was 17.5 µM and the GI50 [18] was 16.4 µM (inactive). For the same compound, the GI50 [19] was 2.22 µM (inactive), the GI50 [20] was 30.1 µM (inactive) and the GI50 [21] was 13.9 µM (inactive). The GI50 [22] was 36.2 µM (inactive), the GI50 [23] was 24.9 µM (inactive) and the GI50 [24] was 22.6 µM (inactive). The GI50 [25] was 26.9 µM (inactive), the GI50 [26] was 33.8 µM (inactive) and the GI50 [27] was 16.4 µM (inactive). The GI50 [28] was 23.7 µM (inactive), the GI50 [29] was 16.8 µM (inactive) and the GI50 [30] was 11.8 µM (inactive). The GI50 [31] was 16.4 µM (inactive), the GI50 [32] was 20.8 µM (inactive) and the GI50 [33] was 14.6 µM (inactive). For the same compound, the GI50 [34] was 13.3 µM (inactive), the GI50 [35] was 17.2 µM (inactive) and the GI50 [36] was 12.7 µM (inactive). For the same compound, the GI50 [37] was 19.2 µM (inactive), the GI50 [38] was 30.8 µM (inactive) and the GI50 [39] was 17.6 µM (inactive). For the same compound, the GI50 [40] was 13.6 µM (inactive), the GI50 [41] was 23 µM (inactive) and the GI50 [42] was 21.8 µM (inactive). For the same compound, the GI50 [43] was 13 µM (inactive), the GI50 [44] was 4.63 µM (inactive) and the GI50 [45] was 15.2 µM (inactive). For the same compound, the GI50 [46] was 13.4 µM (inactive), the GI50 [47] was 15.8 µM (inactive) and the GI50 [48] was 16.3 µM (inactive). The GI50 [49] was 17.2 µM (inactive), the GI50 [50] was 4.49 µM (inactive) and the GI50 [51] was 22 µM (inactive). The GI50 [52] was 23.1 µM (inactive), the GI50 [53] was 20.7 µM (inactive) and the GI50 [54] was 13.9 µM (inactive). The GI50 [55] was 4.93 µM (inactive).

In the case of COc1ccc(/C(C)=N/NC(=O)c2ccncc2)cc1OC, the GI50 [1] was > 10 µM (inactive), the GI50 [2] was > 10 µM (inactive) and the GI50 [5] was > 10 µM (inactive). The GI50 [7] was > 10 µM (inactive), the GI50 [8] was > 10 µM (inactive) and the GI50 [9] was > 10 µM (inactive). The GI50 [10] was > 10 µM (inactive), the GI50 [11] was > 10 µM (inactive) and the GI50 [12] was > 10 µM (inactive). For the same compound, the GI50 [13] was > 10 µM (inactive), the GI50 [14] was > 10 µM (inactive) and the GI50 [15] was > 10 µM (inactive). For the same compound, the GI50 [17] was > 10 µM, the GI50 [56] was > 10 µM (inactive) and the GI50 [18] was > 10 µM (inactive). The GI50 [19] was > 10 µM (inactive), the GI50 [20] was > 10 µM (inactive) and the GI50 [21] was > 10 µM (inactive). For the same compound, the GI50 [24] was > 10 µM (inactive), the GI50 [25] was > 10 µM (inactive) and the GI50 [26] was 2.82 µM (inactive). The GI50 [27] was > 10 µM (inactive), the GI50 [28] was > 10 µM (inactive) and the GI50 [29] was > 10 µM (inactive). The GI50 [31] was > 10 µM (inactive), the GI50 [33] was > 10 µM (inactive) and the GI50 [34] was > 10 µM (inactive). The GI50 [36] was > 10 µM (inactive), the GI50 [37] was > 10 µM (inactive) and the GI50 [39] was > 10 µM (inactive). For the same compound, the GI50 [41] was > 10 µM (inactive), the GI50 [43] was > 10 µM (inactive) and the GI50 [44] was > 10 µM (inactive). The GI50 [45] was > 10 µM (inactive), the GI50 [57] was 7.05 µM (inactive) and the GI50 [58] was > 10 µM (inactive). For the same compound, the GI50 [46] was 9.08 µM (inactive), the GI50 [48] was > 10 µM (inactive) and the GI50 [50] was > 10 µM (inactive). For the same compound, the GI50 [51] was > 10 µM (inactive), the GI50 [52] was > 10 µM (inactive) and the GI50 [53] was > 10 µM (inactive). The GI50 [54] was > 10 µM (inactive).
